In the NIST ThermoML archive (doi:10.1021/je0302001):

Experiment: mn = molality of the nth substance listed, in mol/kg
Conditions: for surface tension liquid-gas: Ring tensiometer; for viscosity / speed of sound / mass density: 101.3 kPa, Liquid; for viscosity: Capillary tube (Ostwald / Ubbelohde) method

O=[N+]([O-])[O-].O=[N+]([O-])[O-].[Zn+2] [nitric acid, zinc salt] + O
Conditions	mass density [kg/m3]	speed of sound [m/s]	surface tension liquid-gas [mN/m]	viscosity [mPa·s]
293.15 K, m1 = 0.0875	–	1489.1	–	–
293.15 K, m1 = 0.1329	–	1488.6	–	1.053
293.15 K, m1 = 0.2466	–	1494.3	–	1.086
293.15 K, m1 = 0.3388	–	1499	–	1.118
293.15 K, m1 = 0.6111	–	1514.8	–	1.21
293.15 K, m1 = 0.6405	–	1517	–	1.223
293.15 K, m1 = 1.113	–	1546	–	1.428
293.15 K, m1 = 1.258	–	1558.9	–	1.514
293.15 K, m1 = 1.551	–	1578.3	–	1.664
293.15 K, m1 = 1.906	–	1603.4	–	1.931
293.15 K, m1 = 2.145	–	1618.3	–	2.133
293.15 K, m1 = 2.29	–	1627.9	–	2.258
293.15 K, m1 = 2.292	–	1626.3	–	–
293.15 K, m1 = 2.344	–	1631.6	–	2.273
293.15 K, m1 = 2.91	–	1666.2	–	2.846
293.15 K, m1 = 3.472	–	1697.2	–	3.61
293.15 K, m1 = 4.075	–	1724.9	–	4.615
293.15 K, m1 = 4.817	–	1752.8	–	6.303
293.15 K, m1 = 5.133	–	–	85.7	–
293.15 K, m1 = 5.224	–	1762.1	–	7.371
293.15 K, m1 = 5.797	–	1777.6	–	9.658
293.15 K, m1 = 6.245	–	–	86.95	–
293.15 K, m1 = 6.34	–	1787.7	–	11.98
293.15 K, m1 = 6.89	–	1796.2	–	–
294.3 K, m1 = 0.0875	1010.8	–	–	–
295.95 K, m1 = 4.075	1492.7	–	–	–
296.1 K, m1 = 6.89	1712.4	–	–	–
296.15 K, m1 = 0.2466	1034.3	–	–	–
296.25 K, m1 = 4.817	1558.4	–	–	–
296.5 K, m1 = 1.258	1177	–	–	–
297.05 K, m1 = 0.3388	1047.7	–	–	–
297.05 K, m1 = 1.906	1259.3	–	–	–
297.5 K, m1 = 2.29	1304.8	–	–	–
297.8 K, m1 = 0.6111	1087.1	–	–	–
297.85 K, m1 = 0.1329	1016.6	–	–	–
297.9 K, m1 = 2.292	1304.8	–	–	–
297.95 K, m1 = 4.075	1491.1	–	–	–
298 K, m1 = 2.344	1310.8	–	–	–
298.05 K, m1 = 3.472	1432.6	–	–	–
298.15 K, m1 = 0.0875	–	1502.8	–	–
298.15 K, m1 = 0.1329	–	1501.5	–	0.937
298.15 K, m1 = 0.2466	–	1506.6	–	0.968
298.15 K, m1 = 0.3388	–	1512.2	–	0.997
298.15 K, m1 = 0.6111	–	1526.1	–	1.081
298.15 K, m1 = 0.6405	–	1527.3	–	1.093
298.15 K, m1 = 1.113	–	1554.3	–	1.278
298.15 K, m1 = 1.258	–	1570.5	–	1.355
298.15 K, m1 = 1.551	–	1584.3	–	1.489
298.15 K, m1 = 1.906	–	1606.9	–	1.725
298.15 K, m1 = 2.145	–	1620.9	–	1.903
298.15 K, m1 = 2.29	–	1633	–	2.009
298.15 K, m1 = 2.292	–	1628.3	–	–
298.15 K, m1 = 2.344	–	1633.6	–	2.026
298.15 K, m1 = 2.91	–	1665.2	–	2.527
298.15 K, m1 = 3.472	–	1694.4	–	3.188
298.15 K, m1 = 4.075	–	1719.1	–	4.048
298.15 K, m1 = 4.817	1556.8	1748.7	–	5.473
298.15 K, m1 = 5.224	–	1755.5	–	6.362
298.15 K, m1 = 5.797	–	1769.4	–	8.228
298.15 K, m1 = 6.34	–	1777.8	–	10.12
298.15 K, m1 = 6.89	–	1783	–	–
298.45 K, m1 = 0.0875	1009.7	–	–	–
298.45 K, m1 = 5.224	1589.9	–	–	–
298.65 K, m1 = 0.6405	1090.9	–	–	–
298.75 K, m1 = 1.113	1156.5	–	–	–
298.75 K, m1 = 2.91	1373.5	–	–	–
298.85 K, m1 = 2.145	1286.9	–	–	–
298.95 K, m1 = 1.258	1175.8	–	–	–
299.05 K, m1 = 7.349	1738.2	–	–	–
299.2 K, m1 = 1.906	1258	–	–	–
299.6 K, m1 = 5.8	1633.1	–	–	–
299.7 K, m1 = 0.2466	1033.3	–	–	–
299.7 K, m1 = 1.551	1213.3	–	–	–
299.7 K, m1 = 6.89	1708.8	–	–	–
299.75 K, m1 = 2.29	1303.4	–	–	–
300.05 K, m1 = 2.292	1303.4	–	–	–
300.05 K, m1 = 3.472	1431.1	–	–	–
300.05 K, m1 = 6.34	1671.6	–	–	–
300.2 K, m1 = 2.344	1309.4	–	–	–
300.35 K, m1 = 5.224	1588.3	–	–	–
300.55 K, m1 = 0.3388	1046.5	–	–	–
300.8 K, m1 = 0.6111	1085.9	–	–	–
300.8 K, m1 = 2.91	1372.1	–	–	–
301 K, m1 = 2.145	1285.5	–	–	–
301.25 K, m1 = 1.113	1155.2	–	–	–
301.35 K, m1 = 5.8	1631.5	–	–	–
301.35 K, m1 = 6.89	1707.1	–	–	–
301.4 K, m1 = 0.1329	1015.6	–	–	–
301.4 K, m1 = 1.906	1256.6	–	–	–
301.5 K, m1 = 1.258	1174.5	–	–	–
301.55 K, m1 = 0.6405	1089.7	–	–	–
301.85 K, m1 = 2.29	1302	–	–	–
301.85 K, m1 = 4.075	1488	–	–	–
301.85 K, m1 = 6.34	1669.9	–	–	–
302 K, m1 = 1.551	1212	–	–	–
302.1 K, m1 = 3.472	1429.5	–	–	–
302.1 K, m1 = 4.817	1553.4	–	–	–
302.2 K, m1 = 2.292	1302	–	–	–
302.25 K, m1 = 2.344	1308.1	–	–	–
302.25 K, m1 = 5.224	1586.5	–	–	–
302.35 K, m1 = 0.0875	1008.6	–	–	–
302.5 K, m1 = 7.349	1734.5	–	–	–
302.9 K, m1 = 2.91	1370.6	–	–	–
303.15 K, m1 = 0.0875	–	1514.4	–	–
303.15 K, m1 = 0.1329	–	1513	–	0.841
303.15 K, m1 = 0.2263	–	–	71.91	–
303.15 K, m1 = 0.2466	1032.1	1518.2	–	0.87
303.15 K, m1 = 0.334	–	–	71.94	–
303.15 K, m1 = 0.3388	–	1520.9	–	0.896
303.15 K, m1 = 0.6111	–	1535.9	–	0.976
303.15 K, m1 = 0.6198	–	–	72.68	–
303.15 K, m1 = 0.6405	–	1536.9	–	0.984
303.15 K, m1 = 0.8228	–	–	73.52	–
303.15 K, m1 = 1.113	–	1561.1	–	1.15
303.15 K, m1 = 1.258	–	1571.6	–	1.221
303.15 K, m1 = 1.259	–	–	74.63	–
303.15 K, m1 = 1.549	–	–	75.19	–
303.15 K, m1 = 1.551	–	1589.3	–	1.34
303.15 K, m1 = 1.818	–	–	75.65	–
303.15 K, m1 = 1.906	–	1610.2	–	1.549
303.15 K, m1 = 2.145	1284.1	–	–	1.711
303.15 K, m1 = 2.222	–	–	76.95	–
303.15 K, m1 = 2.29	–	–	–	1.797
303.15 K, m1 = 2.344	–	–	–	1.819
303.15 K, m1 = 2.526	–	–	77.93	–
303.15 K, m1 = 2.721	–	–	78.39	–
303.15 K, m1 = 2.91	–	–	–	2.259
303.15 K, m1 = 3.426	–	–	80.38	–
303.15 K, m1 = 3.472	–	–	–	2.839
303.15 K, m1 = 4.011	–	–	81.68	–
303.15 K, m1 = 4.075	–	–	–	3.581
303.15 K, m1 = 4.231	–	–	82.16	–
303.15 K, m1 = 4.817	–	–	–	4.795
303.15 K, m1 = 5.133	–	–	84.17	–
303.15 K, m1 = 5.224	–	–	–	5.544
303.15 K, m1 = 5.797	–	–	–	7.1
303.15 K, m1 = 6.245	–	–	85.54	–
303.15 K, m1 = 6.34	–	–	–	8.647
303.15 K, m1 = 6.89	–	–	–	10.85
303.15 K, m1 = 7.349	–	–	–	12.93
